Measured values as given in patent US20260199213A1, “PEPTIDE HAVING ACTIVITY OF IMPROVING STATE OF SKIN, AND USE THEREOF” (CAREGEN CO., LTD., priority 2022, published 2026).

Tested on: MMP-1
Experiment: MMP-1 expression increased by ultraviolet rays in HaCaT cells (western blot)
Format: cell-based
Conditions: 20 mJ/cm^2 UV, 10 μM, 50 μM or 1000 μM peptide, 24 hours, FIG. 15
Text: It has been reported that MMP-1 (matrix metalloproteinase-1) promotes the decomposition of collagen and the reduction of elastin in the dermis layer, thereby creating wrinkles and causing a decrease in elasticity in the skin. Accordingly, in this example, the aim was to confirm the effect of the peptide according to an embodiment on improving extrinsic skin aging, including improving wrinkles and increasing elasticity, etc., by evaluating the change in the expression level of MMP-1 increased by ultraviolet irradiation.
Specifically, NIH3T3 cells or HaCaT cells were seeded in a 6-well plate at a density of 5×10^5 cells/well and cultured for 24 hours. Next, the cells were washed once with serum-free DMEM media, and 10 μM, 50 μM or 1000 μM of the peptide consisting of the amino acid sequence of SEQ ID NO: 1 was dispensed into 1 mL of the serum-free media, and cultured in a CO2 incubator at 37° C. for 1 hour. Next, the above culture was transferred to an e-tube, mixed with 1 ml of PBS, and dispensed into a well plate. Next, using a UV irradiator (VILBER LOURMAT, Cat No.: 3102-BSU, France), 6 J/cm^2 ultraviolet rays were irradiated to NIH3T3 cells, and 20 mJ/cm^2 ultraviolet rays were irradiated to HaCaT cells. […] Next, MMP-1 was detected using […]. […]

GPRGDP [SEQ ID NO: 1]
expression of MMP-1 increased by ultraviolet irradiation: reduced or restored
